One data set concerns cancer stem cells (CSCs). To be noted: cited from earlier work.
For the next data set, the system named is UM9 MM tumors. Kind of data set: In vivo efficacy in humanized xenograft RAG2-/-γc-/- model. More on the design: species or system mice. The procedure:
In vivo efficacy of FL118: The in vivo efficacy of FL118 was studied in a xenograft RAG2^−/−γc^−/− marine model in which human MM cells are grown in a humanized BM like microenvironment generated by subcutaneous inoculation of MSC coated Hybrid scaffolds (4 scaffolds per mice) as described elsewhere (Groen R W, et al. Blood 2012,120:e9-e16). 24 hours before tumor inoculation (UM9; 5×10^5 cells/scaffold) mice were pre-conditioned with 18 mg/kg Busilvex. One week after inoculation, when there was visible tumor growth in all scaffolds by BLI, mice were randomly divided in four groups which were treated as follows: (1) vehicle control (n=3); (2) 0.05 mg/kg FL118 (n=4); (3) 0.1 mg/kg FL118 (n=4); (4) 0.2 mg/kg FL118 (n=4). FL118 or vehicle was administrated i.v. daily for five times. Tumor growth was monitored by weekly BLI measurements as previously described (Groen R W, et al. Blood 2012,120:e9-e16). All animal experiments were conducted for animal experimentation and were in compliance with the Dutch Animal Experimentation Act.

In data set [1] the test system is control genes (p21cip1/waf1, dihydrofolate reductase, human thrombin receptor, thymidine kinase). The note with it: cited from earlier work.
A further data set has as its system T-cells and NK-cells. Nature of the data set: Toxicity of FL118 on immune effector cells. The note with it: up to 100 nM. It is filed as cell-based, human. The procedure:
Toxicity of FL118 on immune effector cells: Cryopreserved BMMNCs derived from MM patients or plasma cell leukemia (PCL) patients, were treated with various concentrations of FL118. After 24 hours, viable CD45^+ CD3^+ T-cells and CD45^+ CD56^+ CD14^− CD3^− NK-cells were enumerated by multiparameter flow cytometry. Additionally, healthy-donor peripheral blood mononuclear cells (PBMCs) were seeded in 96-well flat-bottom plates at 1×10^5 cells/well, stimulated with PMA (25 ng/mL) and ionomycin (500 ng/mL) (both Santa Cruz Biotechnology) for 24 hours, and subsequently treated with FL118 for 48 hours before determining activated CD45^+ CD3^+ CD56^− CD25^+ T-cells by flow cytometry. The percentage cell survival was then calculated using the following formula: % immune cell survival=absolute number of viable immune cells in treated wells/mean absolute number of viable immune cells in untreated wells×100%.

The conditions of data set [2]: beagle dogs; cited from earlier work.
For a further data set, the system named is cancer cell growth. The note with it: cited from earlier work.
The next data set relates to human tumors. To be noted: cited from earlier work.
In data set [3] the test system is cisplatin-resistant pancreatic cancer cells. To be noted: cited from earlier work.
Another data set concerns BMMSCs. Kind of data set: BMMSC viability (Cell TiterGlo). As to the method:
A pool (n=12) of newly diagnosed-MM patient derived BMMSCs were treated with serial concentrations of FL118. Cell viability was determined by Cell TiterGlo after indicated period of time. Error bars represent the SD of three independent experiments.
Bone Marrow derived Mesenchymal stromal cells (BMMSCs): Diagnostic BM aspirations from MM patients were used to isolate BMMNCs and culture adherent BMMSCs as described elsewhere (Prins H J, et al. Tissue Eng Part A. 2009, 15:3741-3751). To minimalize inter-individual variation, all experiments were performed with cells from a pool of BMMSCs derived from twelve MM patients at passage 3.
For orientation: In ATP-based viability assays light output follows the ATP content of the culture.

A further data set relates to PDX tumors. The note with it: in vivo; cited from earlier work.
A short description of data set [4]: X-ray powder diffractometer (XRPD) crystal versus amorphous status. The format is physicochemical. As to the method: Crystal versus amorphous status analyses of FL118 versus the formulated FL118 product using X-ray powder diffractometer: The crystal or amorphous status of each formulated FL118-a type of CD complex powder is determined using X-ray powder diffractometer (XRPD). Specifically, about 5 mg samples of each formulated FL118-a type of CD complex powder are spread onto the center of Si-substrate (samples area will be 1 cm in diameter) for XRPD testing. Laboratory XRPD patterns for samples will be collected at 25° C. The diffraction data will be collected over the angular range of 2θ=3°-40° with a step size of 2θ=0.02° and accounting time of 0.12 s/step.

The subject of another data set is Survivin. Nature of the data set: Intracellular staining of Survivin in patient MM cells. The format is cell-based, human. To be noted: FL118-susceptible RR patients, 16 h. As to the method:
Intracellular staining Survivin and Mcl-1: Mcl-1 and survivin expression levels in MM cells of BMMNC patient samples were determined by intracellular staining followed by flow cytometry. Untreated or FL118 treated (16 h) patient samples were washed twice with cold PBS. Cells were blocked with human immunoglobulin and stained for CD38 (BD biosciences), CD138 (Bio-Connect) and live/dead cell marker. In addition, LUC- and Green fluorescence protein (GFP)-transduced UM9 MM-cells were incubated alone or a monolayer of 1×10^6 BMMSCs in a 100 mm dish for 24 or 48 hours. Non-adherent cells were harvested by taking culture medium from plates and washing plates with PBS by gentle pipetting. Adherent cells were harvested using Stem-Pro Accutase. Both adherent and non-adherent cells were blocked with human immunoglobulin and stained for CD105 (Synobiotechnology) and live/dead marker. The stained patient cells and UM9 cells were then fixated in 4% formaldehyde for 15 minutes at room temperature. After fixation, the cells were placed in ice cold 90% methanol for 30 minutes on ice for permeabilization and subsequently stored at −20° C. […] Expression levels were analyzed in viable CD38^+ CD138^+ patient MM cells and GFP^+ CD105^− UM9-cells using flow cytometry.

Setting [5] is: 0.2 mg/kg i.v. daily for five times.

Turning to `CC[C@@]1(O)C(=O)OCc2c1cc1n(c2=O)Cc2cc3cc4c(cc3nc2-1)OCO4` [FL118], in the data set with cancer stem cells (CSCs), the “expression of CSC markers (ABCG2, ALDH1A1, Oct4)” value is “downregulates” and the “invasive ability of CSCs” value was “effectively decreases”. Also, in the data set with UM9 MM tumors (setting [5]), the “delay of tumor outgrowth” value is “up to 5 weeks” and the “effect on initial tumor volume” value is on record as “reduce the initial tumor volume”. For the same compound, in the data set with UM9 MM tumors (0.05, 0.1, 0.2 mg/kg i.v. daily for five times), the “in vivo anti-MM activity” value was “dose-dependent”. The “inhibitory effects on control genes” value in data set [1] was “no inhibitory effects”. For the same compound, the “toxic effects on resting T-cells or NK-cells” value in the data set on T-cells and NK-cells (BMMNC samples from MM or PCL patients, 24 hours) was “no toxic effects”. Besides, the “toxic effects on PMA-activated CD25+ T-cells” value in the data set on T-cells and NK-cells (healthy individuals, 48 hours) was “no toxic effects”. Also, in the data set on MM1.s cells (24 hours, PBMC effectors), the “combination with anti-DR5 antibody Drozitumab, cell lysis” value is “great synergistic activity”. In addition, the “microenvironment-induced immune resistance, combination with Drozitumab” value in the data set on MM1.s cells (presence of BMMSCs) is “reversed”. Further, the “hematopoietic and biochemical toxicities” value in [2] is “very low”. In addition, in the data set with cancer cell growth, the “concentration range for inhibition of cancer cell growth” value is recorded as “high pM to low nM range”. In addition, the “activity on irinotecan and topotecan-resistant human tumors” value in the data set with human tumors (animal models) is reported as “effectively overcomes”. Also, in the data set on human tumors (two-month experimental period), the tumor elimination result is “eliminate small and large volume human tumors without relapse in a high percentage of mice”. For the same compound, the “antitumor activity compared with FDA-approved anticancer drugs” value in the data set on human tumors (versus irinotecan, topotecan, doxorubicin, 5-FU, gemcitabine, docetaxel, oxaliplatin, cytoxan, cisplatin) was “significantly better antitumor activity”. In [3], the “activity on cisplatin-resistant pancreatic cancer cells” value was “preferentially targets and kills”; the “spheroid formation of pancreatic cancer stem cells” value is “inhibits”. In addition, the “toxicity against BMMSCs” value with BMMSCs (serial concentrations of FL118) is listed as “minimal toxicity”. Further, the “toxic effects on BMMSCs” value in the data set on BMMSCs (up to a dose of 100 nM) is “no toxic effects”. In the data set on PDX tumors, the “effect on PDX tumors resistant/non-sensitive to FL118 and gemcitabine, combination with gemcitabine” value is recorded as “eliminated the PDX tumors”; the “effect on PDX tumors, FL118 alone” value is given as “effectively eliminated PDX tumors”. The “crystal versus amorphous status” value in data set [4] is “crystal”. Moreover, in the data set on Survivin, the “levels of Survivin expression” value is given as “significantly reduced”.

The values are drawn from patent US12268682B2, “Anticancer drug FL118 formulation for treatment of human cancer” (CANGET BIOTEKPHARMA, LLC, priority 2019, dated 2025).
